Consider two molecules from PMC2551328 (Biochemistry, 2008).

Targets include M.tb PGDH G316, 318V (Mycobacterium tuberculosis, UniProt P9WNX3, G315V/G317V); M.tb PGDH G317V (Mycobacterium tuberculosis, UniProt P9WNX3, G316V); M.tb PGDH D463A (Mycobacterium tuberculosis, UniProt P9WNX3, D462A); M.tb PGDH N481A (Mycobacterium tuberculosis, UniProt P9WNX3, N480A); M.tb PGDH Y461A (Mycobacterium tuberculosis, UniProt P9WNX3, Y460A); M.tb PGDH G316, 317V (Mycobacterium tuberculosis, UniProt P9WNX3, G315V/G316V); M.tb PGDH G318V (Mycobacterium tuberculosis, UniProt P9WNX3, G317V); M.tb PGDH G317, 318V (Mycobacterium tuberculosis, UniProt P9WNX3, G316V/G317V); M.tb PGDH G316V (Mycobacterium tuberculosis, UniProt P9WNX3, G315V).

What all share (assay type): biochemical

In general, Ki refers to a dissociation constant, usually derived from enzyme kinetics or from competition with a known ligand. A low value points to a stronger hold on the target. In general, Km refers to the concentration of substrate that gives half-maximal velocity. One may read the kcat as the maximal rate divided by the concentration of active sites. For `O=C(O)C(=O)COP(=O)(O)O` [HPAP, hydroxypyruvic acid phosphate], the inhibitory constant (Ki) at M.tb PGDH G316, 318V is 0.22 ± 0.035 mM; at M.tb PGDH G317V, 1.11 ± 0.148 mM; at M.tb PGDH D463A, 1.09 ± 0.165 mM; on M.tb PGDH N481A it was 2.32 ± 0.337 mM; at M.tb PGDH Y461A, 0.42 ± 0.065 mM; at M.tb PGDH G316, 317V, 0.38 ± 0.045 mM. The Ki at M.tb PGDH G318V came out at 1.92 ± 0.437 mM; on M.tb PGDH G317, 318V, 1.62 ± 0.402 mM; on M.tb PGDH G316V, 2.23 ± 0.19 mM. In addition, the Km on M.tb PGDH G316, 318V amounted to 470 ± 43 µM; at M.tb PGDH G317V, 165 ± 9 µM; on M.tb PGDH D463A it was 140 ± 10 µM; at M.tb PGDH N481A, 120 ± 15 µM; on M.tb PGDH Y461A, 270 ± 60 µM; at M.tb PGDH G316, 317V it was 610 ± 95 µM. The Km at M.tb PGDH G318V amounted to 203 ± 23 µM; at M.tb PGDH G317, 318V it was 220 ± 43 µM; on M.tb PGDH G316V, 114 ± 4 µM. The kcat on M.tb PGDH G316, 318V stood at 2827 ± 197 s⁻¹; on M.tb PGDH G317V it was 2111 ± 119 s⁻¹; at M.tb PGDH D463A, 720 ± 89 s⁻¹; on M.tb PGDH N481A it was 603 ± 77 s⁻¹; on M.tb PGDH Y461A, 2754 ± 300 s⁻¹; at M.tb PGDH G316, 317V, 2805 ± 310 s⁻¹. Moreover, the kcat on M.tb PGDH G318V turned out to be 2349 ± 177 s⁻¹; at M.tb PGDH G317, 318V, 605 ± 27 s⁻¹; on M.tb PGDH G316V it was 1111 ± 30 s⁻¹.

For `N[C@@H](CO)C(=O)O` [L-serine, reference compound], the “Hill Coefficient” value on M.tb PGDH G316, 318V is 1.9 ± 0.1; on M.tb PGDH G317V, 1.5 ± 0.1; on M.tb PGDH D463A it was 1.4 ± 0.1; at M.tb PGDH Y461A, 1.7 ± 0.1; on M.tb PGDH G316, 317V it was 1.7 ± 0.1; at M.tb PGDH G318V, 2.5 ± 0.1. Moreover, the “Hill Coefficient” value on M.tb PGDH G317, 318V is 1.9 ± 0.1; at M.tb PGDH G316V, 1.6 ± 0.1. Moreover, the “decrease in sensitivity to serine” value on M.tb PGDH G318V was “about 5 fold”.
